Laboratory results as given in patent US6660910B1, “Selection marker” (Syngenta Mogen B.V., priority 1997, dated 2003).

Key:
Type in all cases: cell-based
[1] = system: root segments of Arabidopsis thaliana cv. C24; assay: Arabidopsis root transformation with selection on cyanamide or kanamycin; conditions: pMOG 1156; treatment kanamycin 50 mg/litre; column headed same conc. as treatment in rooting medium
[2] = system: stem segments of Solanum tuberosum cv. Kardal; assay: Transformation of potato stem segments with selection on cyanamide or kanamycin
Experimental: Described below is the method used for transformation of stem segments of Solanum tuberosum cv. Kardal using Agrobacterium tumefaciens. Nodal explants from in vitro grown potato plants were used 3 to 8 weeks after transfer. The plants were grown on Multiplication Medium (MUM) under a 16 h light period (1700 lux) at 24° C. and a 8 h dark period at 21° C. (The various media can be found in Table 2). Stem segments of approximately 5 mm were cut on sterile filter paper soaked with Washing Medium (WAM) and collected in a flask containing Washing Medium. For approximately 300 explants the Washing Medium was replaced by Pre cultivation Medium (PRM). The flasks were cultured at 80 rpm at the same culture conditions as described above for approximately 24 h. All binary vectors used in this study contained the nptII gene as a plant selectable marker and the nptIII as bacterial selectable marker. Plasmid pMOG410 additionally harbored a chimeric gus gene containing an intron (Vancanneyt et al. Mol. Gen. Genet., 220, 245-250, 1990). Plasmid pMOG1156 additionally harbored the gus gene and the chimeric cah gene encoding cyanamide hydratase. Plasmid pMOG874 additionally harbored the cah gene. Plasmids were maintained in E.coli and A. tumefaciens under kanamycin selection.
The Agrobacterium strain used in this study harbored a rifampicin selection marker in a C58 chromosomal background. The construction of the helper strain EHA105 is described by Hood et al. (1993), Transg. Res. 2, 208-218.
Agrobacteria were grown overnight in LB medium with antibiotics (rifampicin 20 mg/l, kanamycin 100 mg/l). The overnight culture was diluted to OD600=0.1 and grown to OD600=0.3 in LB without antibiotics in approximately 2 h time. Bacterial suspensions were centrifuged at 1600×g for 15 minutes at room temperature. Bacteria were resuspended in Washing Medium and used for cocultivation experiments. The Pre cultivation Medium was removed from the flasks and replaced by the Agrobacterium suspension. The flasks were incubated for 20 minutes after which the explants were rinsed twice with Washing Medium. The explants were dried on sterile filter paper and incubated for 48 h on plates containing Cocultivation Medium (COM). Then, the explants were transferred to Post cultivation Medium (POM) and incubated for 72 h. The explants were then transferred to Shoot inducing Medium (SIM) containing several concentrations cyanamide or kanamycin. After two weeks the explants were subcultured on the same medium and approximately three weeks later the explants were placed on Shoot elongation Medium (SEM) containing cyanamide or kanamycin as mentioned above. When shoots were large enough to cut they were transferred to Root inducing Medium (RIM). Shoots that were able to root were then transferred to Root inducing Medium containing 50 mg/l cyanamide or 30 mg/l kanamycin. Simultaneously the transgenic nature of the shoots was determined by testing leaflets of the rooted shoots for expression of the gus gene using a histochemical GUS assay. It appeared that for pMOG1156 rooting of transgenic shoots on medium containing cyanamide was completely correlated with expression of the gus gene.

[3] = system: callus derived from scutellum of mature embryos of Oryza sativa cv. Taipei 309; assay: Rice callus transformation (Agrobacterium) with cyanamide selection; conditions: for Calli able to regenerate: 15 mg/l cyanamide
Experimental: Described below is the method used for transformation of callus derived from scutellum of mature embryos of Oryza sativa cv. Taipei 309 using Agrobacterium tumefaciens strain LBA1119-pMOG1295 (harboring the cah-gene) and strain LBA1119-pMOG1253 (control). Sterile dehusked rice seeds were germinated on plates containing Callus Induction Medium (CIM) in the dark at 28° C. (The contents of various media can be found in Table 5). After 3 weeks embryogenic callus derived from the scutellum is isolated and subcultured on the same medium under the same conditions. After 2-3 weeks embryogenic calli were cut in segments of approximately 2-3 mm and cultured plates containing CIM for 4 days. The Agrobacterium strains used in this study harbored a rifampicin selection marker in a C 58 chromosomal background. The construction of the helper strain EHA105 is described by Hood et al. (1993). Agrobacteria were grown for 4 days on plates containing AB medium with antibiotics (rifampicin 20 mg/l, kanamycin 100 mg/l ). Agrobacteria were collected in LIM and the OD600 was adjusted till 1.0-1.5. This suspension was used for cocultivation. Calli were incubated for 10 minutes with the Agrobacterium suspension and dried on sterile filter paper to remove excess of bacteria. Calli were cultured for 48 h on Coculture Medium (COM) plates at 25° C. in the dark. 50 pMOG1295 calli and 20 pMOG1253 calli were cultured per concentration of cyanamid. The following concentrations of cyanamide were used: 0, 15, 30, 60, 100, 150, 200, 300 and 500 mg/l. Hygromycin was applied in a concentration of 50 mg/l. Calli were incubated on First Selection Medium (FSM) plates containing several concentrations of cyanamide or hygromycin at 28° C. in the dark. After 3 weeks the calli were transferred to Embryo Induction Medium I (EIM I) containing the same concentration of cyanamide or hygromycin . After another 3 weeks the calli were subcultured on Embryo Induction Medium II (EIM II) containing the same concentration of cyanamide or an increased concentration of hygromycin (75 mg/l). Calli were transferred to Shoot Induction Medium (SIM) containing the same concentration of cyanamide as during FSM, EIM I, EIM II and were cultured under 12 hours light period (2600 LUX) and 12 hours dark at 28 ° C. Approximately 3 weeks after transferring calli to SIM, shoots were regenerating and excised and placed in jars containing Pre-Greenhouse Medium (PGM). […] At 15 mg/l cyanamide the regeneration frequency of callus from both constructs was the same (pMOG1253 7 out of 16 calli were able to regenerate, pMOG1295 17 out of 44).

[4] = pMOG410 (gus-nptII), Kanamycin 50 mg/l during regeneration, 58 inoculated explants
[5] = pMOG1156 (cah-gus-nptII), Kanamycin 50 mg/l during regeneration, 48 inoculated explants
[6] = pMOG1295, 30 mg/l cyanamide, 50 calli cultured
[7] = pMOG410 (gus-nptII), Cyanamide 20 mg/l during regeneration, 62 inoculated explants
[8] = pMOG410 (gus-nptII), Cyanamide 30 mg/l during regeneration, 62 inoculated explants
[9] = pMOG410 (gus-nptII), Cyanamide 40 mg/l during regeneration, 62 inoculated explants
[10] = pMOG1156 (cah-gus-nptII), Cyanamide 20 mg/l during regeneration, 48 inoculated explants
[11] = pMOG1156 (cah-gus-nptII), Cyanamide 30 mg/l during regeneration, 48 inoculated explants
[12] = pMOG1156 (cah-gus-nptII), Cyanamide 40 mg/l during regeneration, 48 inoculated explants

SMILES: NC[C@H]1O[C@H](O[C@H]2[C@H](O)[C@@H](O[C@H]3O[C@H](CO)[C@@H](O)[C@H](N)[C@H]3O)[C@H](N)C[C@@H]2N)[C@H](O)[C@@H](O)[C@@H]1O [Kanamycin]
- Percentage of GUS expressing plants (% of plants staining blue) [1]: 100%
- No. of excised shoots [2, 4]: 24
- No. of gus + shoots [2, 4]: 12
- No. of rooting shoots ([2]; pMOG410 (gus-nptII), Kanamycin 50 mg/l during regeneration, 58 inoculated explants, rooting medium 30 mg/l kanamycin): 13
- No. of excised shoots ([2]; pMOG874 (cah-nptII), Kanamycin 50 mg/l during regeneration, 58 inoculated explants): 34
- No. of rooting shoots ([2]; pMOG874 (cah-nptII), Kanamycin 50 mg/l during regeneration, 58 inoculated explants, rooting medium 30 mg/l kanamycin): 26
- No. of excised shoots [2, 5]: 26
- No. of gus + shoots [2, 5]: 16
- No. of rooting shoots ([2]; pMOG1156 (cah-gus-nptII), Kanamycin 50 mg/l during regeneration, 48 inoculated explants, rooting medium 30 mg/l kanamycin): 16

SMILES: N#CN [Cyanamide]
- Callus formation ([3]; cyanamide 100 mg/l or higher, pMOG1295 and pMOG1253 calli): No calli were formed
- Calli able to regenerate ([3]; pMOG1253 (control)): 7 out of 16
- Calli able to regenerate ([3]; pMOG1295 (cah-gene)): 17 out of 44
- Calli able to be regenerated [3, 6]: 6
- Calli showing green callus development [3, 6]: 11
- No. of excised shoots [2, 7]: 48
- No. of gus + shoots [2, 7]: 0
- No. of rooting shoots ([2]; pMOG410 (gus-nptII), Cyanamide 20 mg/l during regeneration, 62 inoculated explants, rooting medium 50 mg/l cyanamide): 0
- No. of excised shoots [2, 8]: 10
- No. of gus + shoots [2, 8]: 0
- No. of rooting shoots ([2]; pMOG410 (gus-nptII), Cyanamide 30 mg/l during regeneration, 62 inoculated explants, rooting medium 50 mg/l cyanamide): 0
- No. of excised shoots [2, 9]: 0
- No. of gus + shoots [2, 9]: 0
- No. of rooting shoots ([2]; pMOG410 (gus-nptII), Cyanamide 40 mg/l during regeneration, 62 inoculated explants, rooting medium 50 mg/l cyanamide): 0
- No. of excised shoots ([2]; pMOG874 (cah-nptII), Cyanamide 20 mg/l during regeneration, 58 inoculated explants): 81
- No. of rooting shoots ([2]; pMOG874 (cah-nptII), Cyanamide 20 mg/l during regeneration, 58 inoculated explants, rooting medium 50 mg/l cyanamide): 2
- No. of excised shoots ([2]; pMOG874 (cah-nptII), Cyanamide 30 mg/l during regeneration, 58 inoculated explants): 40
- No. of rooting shoots ([2]; pMOG874 (cah-nptII), Cyanamide 30 mg/l during regeneration, 58 inoculated explants, rooting medium 50 mg/l cyanamide): 8
- No. of excised shoots ([2]; pMOG874 (cah-nptII), Cyanamide 40 mg/l during regeneration, 58 inoculated explants): 10
- No. of rooting shoots ([2]; pMOG874 (cah-nptII), Cyanamide 40 mg/l during regeneration, 58 inoculated explants, rooting medium 50 mg/l cyanamide): 1
- No. of excised shoots [2, 10]: 56
- No. of gus + shoots [2, 10]: 6
- No. of rooting shoots ([2]; pMOG1156 (cah-gus-nptII), Cyanamide 20 mg/l during regeneration, 48 inoculated explants, rooting medium 50 mg/l cyanamide): 6
- No. of excised shoots [2, 11]: 50
- No. of gus + shoots [2, 11]: 12
- No. of rooting shoots ([2]; pMOG1156 (cah-gus-nptII), Cyanamide 30 mg/l during regeneration, 48 inoculated explants, rooting medium 50 mg/l cyanamide): 12
- No. of excised shoots [2, 12]: 15
- No. of gus + shoots [2, 12]: 2
- No. of rooting shoots ([2]; pMOG1156 (cah-gus-nptII), Cyanamide 40 mg/l during regeneration, 48 inoculated explants, rooting medium 50 mg/l cyanamide): 2
